{"source": "paper PMC6151491", "about": "“In Vitro Evaluation of Third Generation PAMAM Dendrimer Conjugates” (Molecules : A Journal of Synthetic Chemistry and Natural …, 2017)", "tested_on": "Caco-2 cells", "experiment": "Lactate dehydrogenase leakage (LDH) assay", "type": "cell-based, Human", "conditions": "3 h incubation, mean ± S.D., n = 4, read-out: IC50 (viability of Caco-2 cells, LDH assay)", "method": "Human intestinal adenocarcinoma cells (Caco-2) (passage 110–120) were seeded at 10,000 cells/well in 96-well plates and maintained at 37 °C in an atmosphere of 5% CO2 and 95% relative humidity in Dulbecco’s Modified Eagle’s Medium (DMEM) supplemented with 1% foetal bovine serum, 1% non-essential amino acids, 50 IU/mL penicillin. and […] streptomycin. After 24 h the medium was removed and the cells were washed in phosphate buffered saline and 200 µL Hanks Balanced Salt Solution (HBSS) containing G3 PAMAM dendrimer, conjugates or G0 PAMAM dendrimer at different concentrations (concentrations were calculated using the average molecular weight (Table 1) for each conjugate as a whole macromolecule). Caco-2 cell monolayers were also treated with blank HBSS and 1% Triton X-100 as low and high controls, respectively. After 3 h of incubation at 37 °C, 100 µL/well supernatant was removed carefully and transferred into corresponding wells of an optically clear 96-well flat bottom microplate. LDH leakage in the compartment was quantified using an LDH assay kit.\nThe percentage was calculated using the following equation:Cytotoxicity (%) = ((exp. − low control)/(high control − low control)) × 100 where exp. is the experimental value.", "data": [{"substance": "lauroyl-G0-diethylene glycol-naproxen [L-G0-deg-NAP]", "values": [{"measurement": "IC50", "result": "3.18 ± 0.455", "unit": "mM"}]}]}
